Holding throughout (type): biochemical
The target in assay [1] is T1, zHDAC10 (Danio rerio, UniProt F1QCV2).
T1 construct: gene hdac10; full-length, residues 2–675
T1 sequence (F1QCV2 2-675): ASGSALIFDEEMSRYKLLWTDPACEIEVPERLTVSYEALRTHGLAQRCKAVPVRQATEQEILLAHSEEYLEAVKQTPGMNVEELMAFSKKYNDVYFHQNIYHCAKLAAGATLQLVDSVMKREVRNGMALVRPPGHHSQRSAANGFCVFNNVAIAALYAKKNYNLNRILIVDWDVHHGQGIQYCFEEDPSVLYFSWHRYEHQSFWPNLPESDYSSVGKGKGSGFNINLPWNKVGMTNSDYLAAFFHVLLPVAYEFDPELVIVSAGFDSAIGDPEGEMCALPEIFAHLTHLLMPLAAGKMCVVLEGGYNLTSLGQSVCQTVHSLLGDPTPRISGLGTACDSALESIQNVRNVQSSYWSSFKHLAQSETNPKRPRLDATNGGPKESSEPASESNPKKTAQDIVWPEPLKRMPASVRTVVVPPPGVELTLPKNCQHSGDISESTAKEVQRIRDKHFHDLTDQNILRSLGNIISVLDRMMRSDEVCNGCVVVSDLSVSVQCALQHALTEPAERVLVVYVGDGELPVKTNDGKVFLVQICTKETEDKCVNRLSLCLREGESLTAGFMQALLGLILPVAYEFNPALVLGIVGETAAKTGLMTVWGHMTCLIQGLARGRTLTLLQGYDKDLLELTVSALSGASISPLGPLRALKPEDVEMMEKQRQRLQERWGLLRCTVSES
Description: LC–MS deacetylase inhibition assay with N8-acetylspermidine; Ki by Cheng-Prusoff.

Assay [2] concerns the target T2, hHDAC10 (Homo sapiens, UniProt Q969S8).
T2 construct: gene HDAC10; full-length, residues 2–669, MBP fusion
T2 sequence (Q969S8 2-669): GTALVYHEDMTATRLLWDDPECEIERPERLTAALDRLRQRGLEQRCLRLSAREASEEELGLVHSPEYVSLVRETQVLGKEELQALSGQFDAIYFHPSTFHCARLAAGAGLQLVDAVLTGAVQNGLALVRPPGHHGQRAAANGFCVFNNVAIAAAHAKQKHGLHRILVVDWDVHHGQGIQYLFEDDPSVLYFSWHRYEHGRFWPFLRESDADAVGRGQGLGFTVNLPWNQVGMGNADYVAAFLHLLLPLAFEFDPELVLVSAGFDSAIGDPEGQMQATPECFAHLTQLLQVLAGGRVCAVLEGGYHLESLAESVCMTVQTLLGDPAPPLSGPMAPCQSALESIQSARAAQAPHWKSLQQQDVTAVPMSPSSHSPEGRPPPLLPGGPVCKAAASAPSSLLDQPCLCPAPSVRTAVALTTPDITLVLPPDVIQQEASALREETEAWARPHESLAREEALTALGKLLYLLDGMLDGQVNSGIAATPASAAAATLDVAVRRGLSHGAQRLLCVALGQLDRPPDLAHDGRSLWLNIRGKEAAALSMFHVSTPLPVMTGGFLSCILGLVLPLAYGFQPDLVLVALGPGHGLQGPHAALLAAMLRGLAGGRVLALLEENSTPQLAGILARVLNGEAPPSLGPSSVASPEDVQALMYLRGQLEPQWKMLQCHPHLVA
Description: LC–MS steady-state kinetics.

Assay [3] addresses T1, zHDAC10. In words: LC–MS steady-state kinetics.
Assay [4] deals with T2, hHDAC10. In words: LC–MS steady-state kinetics (kcat/KM).
Assay [5] addresses T1, zHDAC10. Description: LC–MS steady-state kinetics (kcat/KM).

Usually Ki stands for the equilibrium dissociation constant of an inhibitor or competing ligand from its target. A higher Ki goes with lower affinity.

`NCCCNCCCCCC(=O)C(F)(F)F` [AAT, 7-[(3-aminopropyl)amino]-1,1,1-trifluoroheptan-2-one] had a Ki on zHDAC10 [1] of 0.7 ± 0.2 µM.
Take `CC(=O)NCCCCCN` [AcCAD, acetylcadaverine]: the LC-MS steady-state kinetics entry was “substantial catalytic activity was also observed with acetylcadaverine and acetylputrescine” at hHDAC10 [2]; “substantial catalytic activity was also observed with acetylcadaverine and acetylputrescine” on zHDAC10 [3].
Consider `CC(=O)NCCCCCCCCN` [AcDAO, N-(8-aminooctyl)acetamide], for which the LC-MS steady-state kinetics entry on zHDAC10 [3] is “also observed with acetylcadaverine and acetylputrescine, as well as N-(8-aminooctyl)acetamide”.
For the compound `CC(=O)NCCCCN` [AcPUT, acetylputrescine], the LC-MS steady-state kinetics entry at hHDAC10 [2] is “substantial catalytic activity was also observed with acetylcadaverine and acetylputrescine”; at zHDAC10 [3], “substantial catalytic activity was also observed with acetylcadaverine and acetylputrescine”.
As to `CC(=O)NCCCCNCCCN` [N^8-AcSPD, N^8-acetylspermidine], the figures for the “LC-MS steady-state kinetics (kcat/KM)” value at hHDAC10 [4] and at zHDAC10 [5] were 2,900±200 M^−1 s^−1 and 4,600±300 M^−1 s^−1, respectively.

Values taken from PMC5454378, “Histone deacetylase 10 structure and molecular function as a polyamine deacetylase” (Nature Communications, 2017).
